Data published in paper PMC7785020, “A unique hormonal recognition feature of the human glucagon-like peptide-2 receptor” (Cell Research, 2020).
Where a chain is given by its changes, count along the chain named.

Tests used:
GLP-2R K231^2.67A = target: T1, GLP-2R K231^2.67A (Homo sapiens, UniProt O95838, K231A); assay: cAMP accumulation, K231^2.67A; format: cell-based; design: WT (1–553); expressed in transfected cells; HEK 293T (cAMP); settings: Table S3, K231A; HEK 293T, 30 min, RT; mean ± SEM, n ≥ 3 in duplicate; read-out: cAMP Emax (% WT)
T1 sequence (O95838 1-553 K231A): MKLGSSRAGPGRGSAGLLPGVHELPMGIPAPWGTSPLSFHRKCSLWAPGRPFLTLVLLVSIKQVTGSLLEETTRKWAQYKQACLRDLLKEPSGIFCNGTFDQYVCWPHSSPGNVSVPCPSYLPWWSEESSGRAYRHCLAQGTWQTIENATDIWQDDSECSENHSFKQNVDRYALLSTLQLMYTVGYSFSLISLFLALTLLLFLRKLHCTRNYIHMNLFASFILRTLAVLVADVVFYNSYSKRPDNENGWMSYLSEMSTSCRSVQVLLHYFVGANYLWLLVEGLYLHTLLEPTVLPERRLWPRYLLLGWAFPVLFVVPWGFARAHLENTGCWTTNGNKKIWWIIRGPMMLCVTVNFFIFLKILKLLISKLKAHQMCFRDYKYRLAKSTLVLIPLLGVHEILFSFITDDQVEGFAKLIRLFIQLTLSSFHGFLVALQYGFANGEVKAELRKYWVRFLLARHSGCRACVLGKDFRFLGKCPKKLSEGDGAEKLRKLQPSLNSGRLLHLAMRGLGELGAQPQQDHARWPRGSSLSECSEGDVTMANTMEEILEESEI
Protocol: HEK 293T cells were cultured in Dulbecco’s Modified Eagle’s Medium (DMEM) (Gibco, Waltham, USA) supplemented with 10% (v/v) fetal bovine serum (FBS) (Gibco) and 1% (v/v) sodium pyruvate (Gibco) at 37 °C, 5% CO2 in a humidified incubator. They were seeded onto 6-well cell culture plates and transiently transfected with different GLP-2R constructs using Lipofectamine 2000 transfection reagent (Invitrogen, Carlsbad, CA, USA). After 24 h, the transfected cells were seeded onto 384-well microtiter plates (3000 cells per well) in HBSS supplemented with 5 mM HEPES, 0.1% (w/v) bovine serum albumin (BSA) and 0.5 mM 3-isobutyl-1- methylxanthine, and stimulated with increasing concentrations of GLP-2 for 30 min at RT. Eu and Ulight were diluted by cAMP detection buffer and added to the plates separately to terminate the reaction. Plates were incubated at RT for 60 min before measuring the fluorescence intensity at 620 nm and […] by an EnVision multilabel plate reader (PerkinElmer, Boston, USA).

GLP-2R K414^7.35A = target: T2, GLP-2R K414^7.35A (Homo sapiens, UniProt O95838, K414A); assay: radioligand competition binding, K414^7.35A; design: WT (1–553); expressed in transfected cells; host or cells: COS-7; settings: COS-7, K414^7.35 A; [^125I]GLP-2(1–33, M10Y) 10–15 pM, 4 h, 4 °C; mean ± SEM, n ≥ 3 in duplicate
T2 sequence (O95838 1-553 K414A): T1 sequence (O95838 1-553 K231A) with A231K, K414A
Protocol: A stepwise oxidation reaction was performed by addition of 6 aliquots of 5 µL ChloramineT (30 µL/mL) with a 1-min interval during constant stirring. The reaction was terminated by the addition of 400 µL phase A (0.1% trifluoracetic acid) before being fractionated into 1 mL volume by reverse-phase high-performance liquid chromatography (RP-HPLC, Waters 600 SimiPrep system) on a C18 column. The iodinated protein was […] by increasing concentrations of phase B (Acetonitrile + 0.1% TFA) and tested for competitive binding ability.
One day before transfection, the COS-7 cells were seeded in 75 cm^2 culture flasks (3 million cells/flask) in DMEM, containing 3.9 g/L NaHCO3 and supplemented with 10% FBS, 1% L-glutamine, 180 units/mL penicillin and 45 µg/mL streptomycin. After an overnight culture at 37 °C, 10% CO2 and 95% air humidity, the cells were transiently transfected with different GLP-2R constructs or pcDNA3.1 vector as previously described.[52] Following 24-h incubation, the cells were transferred to Costa® microtiter plates (150,000 cells/well, PerkinElmer) to achieve a 5%–10% specific binding. […] The cells were then washed twice in binding buffer (4 °C), lysed and counted for radioactivity using a Wallac Gamma Counter (PerkinElmer).

| SMILES | Emax (GLP-2R K231^2.67A) | % Binding of WT (GLP-2R K414^7.35A) |
| --- | --- | --- |
| CC[C@H](C)[C@H](NC(=O)[C@H](Cc1ccccc1)NC(=O)[C@H](CC(=O)O)NC(=O)[C@H](CCCNC(=N)N)NC(=O)[C@H](C)NC(=O)[C@H](C)NC(=O)[C@H](CC(C)C)NC(=O)[C@H](CC(N)=O)NC(=O)[C@H](CC(=O)O)NC(=O)[C@H](CC(C)C)NC(=O)[C@@H](NC(=O)[C@@H](NC(=O)[C@H](CC(N)=O)NC(=O)[C@H](CCSC)NC(=O)[C@H](CCC(=O)O)NC(=O)[C@H](CC(=O)O)NC(=O)[C@H](CO)NC(=O)[C@H](Cc1ccccc1)NC(=O)[C@H](CO)NC(=O)CNC(=O)[C@H](CC(=O)O)NC(=O)[C@H](C)NC(=O)[C@@H](N)Cc1c[nH]cn1)[C@@H](C)O)[C@@H](C)CC)C(=O)N[C@@H](CC(N)=O)C(=O)N[C@@H](Cc1c[nH]c2ccccc12)C(=O)N[C@@H](CC(C)C)C(=O)N[C@H](C(=O)N[C@@H](CCC(N)=O)C(=O)N[C@H](C(=O)N[C@@H](CCCCN)C(=O)N[C@H](C(=O)N[C@H](C(=O)N[C@@H](CC(=O)O)C(=O)O)[C@@H](C)O)[C@@H](C)CC)[C@@H](C)O)[C@@H](C)CC [Human GLP-2 (1–33)] | 105 ± 3% | 15.2 ± 1.0 % |
| CC[C@H](C)[C@H](NC(=O)[C@H](Cc1ccccc1)NC(=O)[C@H](CC(=O)O)NC(=O)[C@H](CCCNC(=N)N)NC(=O)[C@H](C)NC(=O)[C@H](C)NC(=O)[C@H](CC(C)C)NC(=O)[C@H](CC(N)=O)NC(=O)[C@H](CC(=O)O)NC(=O)[C@H](CC(C)C)NC(=O)[C@@H](NC(=O)[C@@H](NC(=O)[C@H](CC(N)=O)NC(=O)[C@H](CCSC)NC(=O)[C@H](CCC(=O)O)NC(=O)[C@H](CC(=O)O)NC(=O)[C@H](CO)NC(=O)[C@H](Cc1ccccc1)NC(=O)[C@H](CO)NC(=O)CNC(=O)[C@H](CC(=O)O)NC(=O)CNC(=O)[C@@H](N)Cc1c[nH]cn1)[C@@H](C)O)[C@@H](C)CC)C(=O)N[C@@H](CC(N)=O)C(=O)N[C@@H](Cc1c[nH]c2ccccc12)C(=O)N[C@@H](CC(C)C)C(=O)N[C@H](C(=O)N[C@@H](CCC(N)=O)C(=O)N[C@H](C(=O)N[C@@H](CCCCN)C(=O)N[C@H](C(=O)N[C@H](C(=O)N[C@@H](CC(=O)O)C(=O)O)[C@@H](C)O)[C@@H](C)CC)[C@@H](C)O)[C@@H](C)CC [Teduglutide] | – | 13.9 ± 0.8 % |
